Here are results for three compounds from patent US20220257569A1, “INDOLE-OXADIAZOLE COMPOUNDS AND THEIR THERAPEUTIC USE” (THE GOVERNING COUNCIL OF THE UNIVERSITY OF TORONTO, priority 2018, published 2022).

Series [1] deals with T1, CB1 receptor (Mus musculus, UniProt P47746). The following applies: equilibrium binding assay, cited from earlier work; for effect on binding of CP55940: agonist CP55940.
The target of series [2] is T1, CB1 receptor. Details: from the CB1 receptor in mouse brain membranes; from tissue; host or cells: mouse brain membranes. The settings on record: mouse brain membranes; cited from earlier work.
Series [3] in a line: Rat liver microsomal stability assay. In kind it is in vitro ADME. The settings on record: both sexes, pH 7.4; pooled rat liver microsomes 0.5 mg/mL, 3 μM compound, NADPH, 37° C., 45 min; read-out: Microsomal stability T1/2 Rat. The procedure: (§1) Metabolic stability of indole-oxadiazole derivatives of Formula I was measured by determination of the rate of compound disappearance when incubated in the presence of human or rat liver microsomes. Liver microsomes are prepared from the endoplasmic reticulum of hepatocytes and are the primary source of the most important enzymes (cytochrome P450) involved in drug metabolism. Study of drug stability in the presence of liver microsomes is accepted as a valuable model permitting rapid prediction of in vivo drug stability.
(§2) Human and rat liver microsomes were obtained from commercial sources. Test compounds (3 μM) were incubated with pooled liver microsomes (male and female). Samples were incubated for a 45 minute period and removed at 5 time points and test compounds were analysed by LC-MS/MS.
(§3) Microsomes (final protein concentration 0.5 mg/mL), 0.1 M phosphate buffer pH 7.4, and test compound (final concentration 3 μM; diluted from 10 mM stock solution to give a final DMSO concentration of 0.25%) were incubated at 37° C. prior to the addition of NADPH (final concentration 1 mM) to initiate the reaction. The final incubation volume was 25 μL. A control incubation was included for each compound tested, where 0.1 M phosphate buffer pH 7.4 was added instead of NADPH. The control compounds testosterone and 7-hydroxycoumarin were included in each experiment and all incubations were performed singularly for each compound.
(§4) Each compound was incubated for 0, 5, 15, 30, and 45 minutes. The control (minus NADPH) was incubated for 45 minutes only. The reactions were stopped by the addition of 50 μL methanol containing internal standard at the appropriate time points. The incubation plates were centrifuged at 2500 rpm for 20 minutes at 4° C. to precipitate the protein.
(§5) Following protein precipitation, the sample supernatants were combined in cassettes of up to 4 compounds and analysed using standard LC-MS/MS conditions.
(§6) From a plot of the natural logarithm of the peak area ratio (i.e., the ratio of compound peak area:internal standard peak area) against time, the gradient of the line was determined. Subsequently, half-life and intrinsic clearance were calculated using the equations below:
(§7) Eliminated rate constant (k)=(−gradient).
In general terms: Microsomes from liver hold many membrane-bound enzymes, among them those of drug oxidation.

Series [4] is described as follows: Human liver microsomal stability assay. In kind it is in vitro ADME. The settings on record: both sexes, pH 7.4; pooled human liver microsomes 0.5 mg/mL, 3 μM compound, NADPH, 37° C., 45 min; read-out: Microsomal stability T1/2 Human. The procedure: as §1, §2, §3, §4, §5, §6, §7

T1 sequence (P47746 whole entry): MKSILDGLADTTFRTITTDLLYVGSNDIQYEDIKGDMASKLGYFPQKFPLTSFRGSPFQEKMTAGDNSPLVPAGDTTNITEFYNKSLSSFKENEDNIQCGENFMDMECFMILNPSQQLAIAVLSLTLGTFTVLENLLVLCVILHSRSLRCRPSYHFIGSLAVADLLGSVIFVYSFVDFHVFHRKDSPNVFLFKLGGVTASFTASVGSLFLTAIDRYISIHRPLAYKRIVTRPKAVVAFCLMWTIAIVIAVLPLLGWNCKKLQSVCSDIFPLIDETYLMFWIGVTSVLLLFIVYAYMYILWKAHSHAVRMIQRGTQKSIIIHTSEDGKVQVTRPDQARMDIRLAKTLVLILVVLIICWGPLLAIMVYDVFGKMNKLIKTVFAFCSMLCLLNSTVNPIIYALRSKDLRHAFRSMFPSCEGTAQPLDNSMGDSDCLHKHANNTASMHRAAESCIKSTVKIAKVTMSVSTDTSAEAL

For the compound `CCc1c(C(=O)NCCc2ccc(N3CCCCC3)cc2)[nH]c2ccc(Cl)cc12` [Reference compound 1 (Org27569)], in series [1], the “effect on binding of CP55940” value is “increase” and the “effect on binding of radiolabelled inverse agonist SR141716A” value is on record as “decrease”. For the same compound, in series [2], the “effect on dissociation of radiolabelled CB1 receptor agonist CP55940” value (shortened to “effect on dissociation”) is recorded as “slowing of the dissociation”. In addition, in series [3], the half-life at 3 μM came out at 28 min. The half-life at 3 μM in series [4] was 32 min.
For `CCc1c(C(=O)NC2CCN(Cc3ccccc3)C2)[nH]c2ccc(Cl)cc12` (centres unmarked) [ORG29647], in series [1], the “effect on binding of CP55940” value is given as “increase” and the “effect on binding of radiolabelled inverse agonist SR141716A” value was “decrease”. For the same compound, in series [2], the “effect on dissociation” value was “slowing of the dissociation”.
Regarding `CCc1c(C(=O)NCCc2ccc(N(C)C)cc2)[nH]c2ccc(F)cc12` [ORG27759], in series [1], the “effect on binding of CP55940” value is on record as “increase” and the “effect on binding of radiolabelled inverse agonist SR141716A” value is recorded as “decrease”. The “effect on dissociation” value in series [2] is reported as “slowing of the dissociation”.
